Biological target: Estrogen Receptor (ER) in MCF-7 cells (Homo sapiens (Human), UniProt P03372)
Assay: MCF-7 ER down-regulation assay (immuno-fluorescence)
Format: cell-based
Conditions: stated where not >90%

Chain of Estrogen Receptor (ER) in MCF-7 cells (P03372 whole entry): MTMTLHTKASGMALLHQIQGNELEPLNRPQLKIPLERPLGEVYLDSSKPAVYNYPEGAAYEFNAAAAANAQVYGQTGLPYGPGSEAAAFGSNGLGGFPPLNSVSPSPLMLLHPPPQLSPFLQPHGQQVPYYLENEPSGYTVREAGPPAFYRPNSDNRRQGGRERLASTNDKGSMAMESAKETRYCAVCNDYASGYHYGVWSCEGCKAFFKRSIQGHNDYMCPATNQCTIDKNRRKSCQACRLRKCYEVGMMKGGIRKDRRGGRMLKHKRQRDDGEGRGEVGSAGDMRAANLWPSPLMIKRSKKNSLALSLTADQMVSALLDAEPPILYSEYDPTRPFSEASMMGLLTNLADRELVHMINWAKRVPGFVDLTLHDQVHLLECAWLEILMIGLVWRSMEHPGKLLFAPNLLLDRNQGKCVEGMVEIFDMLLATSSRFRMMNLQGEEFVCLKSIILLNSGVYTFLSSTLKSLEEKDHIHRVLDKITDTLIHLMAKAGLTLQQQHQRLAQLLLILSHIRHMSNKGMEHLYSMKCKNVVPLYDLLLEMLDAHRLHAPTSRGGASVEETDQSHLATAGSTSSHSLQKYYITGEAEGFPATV

Compound | % downregulation (shown in brackets)
COc1ccc(OC[C@@H](C)NCCCF)cc1[C@@H]1c2[nH]c3ccccc3c2C[C@@H](C)N1CC(F)(F)CO [Example 50, 2,2-difluoro-3-((1R,3R)-1-(5-((R)-2-((3-fluoropropyl)amino)propoxy)-2-methoxyphenyl)-3-methyl-1,3,4,9-tetrahydro-2H-pyrido[3,4-b]indol-2-yl)propan-1-ol] | 81%
Cc1c(OCCNCCCF)ccc(F)c1[C@@H]1c2[nH]c3ccccc3c2CC(C)(C)N1C[C@H](C)C(=O)O [Example 134, (S)-3-((R)-1 (6-fluoro-3-(2-((3-fluoro-propyl)amino)ethoxy)-2-methylphenyl)-3,3-dimethyl-1,3,4,9-tetrahydro-2H-pyrido[3,4-b]indol-2-yl)-2-methyl-propanoic acid] | 85%
COc1ccc(O[C@H](C)CNCCCF)cc1[C@@H]1c2[nH]c3ccccc3c2C[C@@H](C)N1CC(F)(F)CO [Example 47, 2,2-difluoro-3-((1R,3R)-1-(5-(((R)-1-((3-fluoropropyl)amino)propan-2-yl)oxy)-2-methoxyphenyl)-3-methyl-1,3,4,9-tetrahydro-2H-pyrido[3,4-b]indol-2-yl)propan-1-ol] | 81%
Cc1c(OCCN(C)CCCF)ccc(F)c1[C@@H]1c2[nH]c3ccccc3c2C[C@@H](C(F)(F)F)N1C[C@H](C)C(=O)O [Example 149, (S)-3-((1R,3S)-1-(6-fluoro-3-(2-((3-fluoropropyl)(methyl)amino)ethoxy)-2-methylphenyl)-3-(trifluoro-methyl)-1,3,4,9-tetrahydro-2H-pyrido[3,4-b]indol-2-yl)-2-methyl-propanoic acid] | 86%
COCc1ccc(OCCNCCCF)cc1[C@@H]1c2[nH]c3ccccc3c2C[C@@H](C)N1CC(F)(F)F [Example 71, 3-fluoro-N-(2-(4-(methoxy-methyl)-3-((1R,3R)-3-methyl-2-(2,2,2-trifluoroethyl)-2,3,4,9-tetrahydro-1H-pyrido[3,4-b]indol-1-yl)phenoxy)ethyl)propan-1-amine] | 90%
C[C@@H]1Cc2c([nH]c3ccccc23)[C@@H](c2c(F)ccc(OCCN(C)CCCF)c2C(F)F)N1C[C@H](C)C(=O)O [Example 148, (S)-3-((1R,3R)-1-(2-(difluoro-methyl)-6-fluoro-3-(2-((3-fluoro-propyl)(methyl)amino)ethoxy)phenyl)-3-methyl-1,3,4,9-tetrahydro-2H-pyrido[3,4-b]indol-2-yl)-2-methyl-propanoic acid] | 68%

Now from value to compound:

% downregulation (shown in brackets) | Compound
−(41%) | C[C@@H]1Cc2c([nH]c3ccccc23)[C@@H](c2cccc(OCCNCCCF)n2)N1CC(F)(F)F [Example 34, 3-fluoro-N-(2-((6-((1S,3R)-3-methyl-2-(2,2,2-trifluoroethyl)-2,3,4,9-tetrahydro-1H-pyrido[3,4-b]indol-1-yl)pyridin-2-yl)oxy)ethyl)propan-1-amine]
79% | C[C@@H]1Cc2c([nH]c3ccccc23)[C@@H](c2c(F)ccc(OCCN(C)CCCF)c2F)N1CC1(F)COC1 [Example 154, N-(2-(2,4-difluoro-3-((1R,3R)-2-((3-fluorooxetan-3-yl)methyl)-3-methyl-2,3,4,9-tetrahydro-1H-pyrido[3,4-b]indol-1-yl)phenoxy)ethyl)-3-fluoro-N-methyl-propan-1-amine]
83% | COc1ccc(OCCNCCCF)c(F)c1[C@@H]1c2[nH]c3ccccc3c2C[C@@H](C)N1CC1(F)COC1 [Example 84, 3-fluoro-N-(2-(2-fluoro-3-((1R,3R)-2-((3-fluorooxetan-3-yl)methyl)-3-methyl-2,3,4,9-tetrahydro-1H-pyrido[3,4-b]indol-1-yl)-4-methoxy-phenoxy)ethyl)propan-1-amine]
88% | C[C@@H]1Cc2c([nH]c3ccccc23)[C@@H](c2c(F)ccc(OCCN(C)CCCF)c2F)N1C[C@H](C)C(=O)O [Example 144]
−(40%) | COc1ccc(OCCNCCCF)cc1[C@@H]1c2[nH]c3ccccc3c2C[C@@H](C)N1C[C@H](C)C(=O)O [Example 53, (S)-3-((1R,3R)-1-(5-(2-((3-fluoropropyl)amino)ethoxy)-2-methoxy-phenyl)-3-methyl-1,3,4,9-tetrahydro-2H-pyrido[3,4-b]indol-2-yl)-2-methyl-propanoic acid]
90% | COc1ccc(OCCNCCCF)c(F)c1[C@@H]1c2[nH]c3ccccc3c2C[C@@H](C)N1CC1(F)CC1 [Example 83, 3-fluoro-N-(2-(2-fluoro-3-((1R,3R)-2-((1-fluorocyclo-propyl)methyl)-3-methyl-2,3,4,9-tetrahydro-1H-pyrido[3,4-b]indol-1-yl)-4-methoxy-phenoxy)ethyl)propan-1-amine]

Reference: US11046689B2, “Selective estrogen receptor down-regulators” (AstraZeneca AB, priority 2017, dated 2021)
